In US7807882B2, “Herbicide-resistant sunflower plants, polynucleotides encoding herbicide-resistant acetohydroxyacid synthase large subunit proteins, and methods of use” (priority 2004, dated 2010):

What was measured:
Test in all cases: Field trial, sulfonylurea tolerance (herbicide injury ratings), Balcarce
Assay type in all cases: in vivo, Helianthus annuus
[1] = tested on: MUT28 sunflower line; conditions: No injury = 0
Source text: (§1) To evaluate the tolerance of MUT28 sunflower plants to sulfonylurea herbicides, HA89 (wild-type), MUT28, IMISUN-1, and SURES-1 sunflower lines were planted outdoors in Balcarce, Argentina during the growing season in an RCBD field trial with two replications to evaluate the tolerance of MUT28 plants to the sulfonylurea herbicide thifensulfuron (TFS) at 1× and 2× rates. The 1× rates for TFS is 4.4 g a.i./ha.

[2] = tested on: SURES-1 sunflower line; conditions: line SURES-1, No injury = 0
Source text: as §1

[3] = tested on: IMISUN-1 sunflower line; conditions: line IMISUN-1, No injury = 0
Source text: as §1

[4] = tested on: HA89 (wild-type) sunflower line; conditions: No injury = 0
Source text: as §1

COc1nc(C)nc(NC(=O)NS(=O)(=O)c2ccsc2C(=O)O)n1 [thifensulfuron]
Herbicide Injury Ratings ([1]; rate 1× (4.4 g a.i./ha)): 30 | Herbicide Injury Ratings ([1]; rate 2× (1× is 4.4 g a.i./ha)): 42 | Herbicide Injury Ratings ([2]; rate 1× (4.4 g a.i./ha)): 5 | Herbicide Injury Ratings ([2]; rate 2× (1× is 4.4 g a.i./ha)): 3 | Herbicide Injury Ratings ([3]; rate 1× (4.4 g a.i./ha)): 20 | Herbicide Injury Ratings ([3]; rate 2× (1× is 4.4 g a.i./ha)): 75 | Herbicide Injury Ratings ([4]; rate 1× (4.4 g a.i./ha)): 75 | Herbicide Injury Ratings ([4]; rate 2× (1× is 4.4 g a.i./ha)): 75
